In publication PMC9475448, “What a difference a methylene makes: replacing Glu with Asp or Aad in the Lys-urea-Glu pharmacophore of PSMA-targeting radioligands to reduce kidney and salivary gland uptake” (Theranostics, 2022):

How the values were obtained:
PSMA = target: T1, PSMA (Homo sapiens, UniProt Q04609); design: method as in PMID 30251544; settings: same assay conditions, reported previously; cited from earlier work
T1 construct: LNCaP cells (400,000/well) were plated onto a 24-well poly-D-lysine coated plate for 48 h; endogenous in cells; host or cells: LNCaP prostate cancer cells

[1] = test system: mouse kidneys and salivary glands; experiment: Biodistribution of previously reported [68Ga]Ga-HTK03041 in mice; format: in vivo; settings: 1h post-injection, unreported data of the earlier study
[2] = test system: mouse kidneys and salivary glands; design: method as in PMID 32859704; settings: 1h post-injection; cited from earlier work

T1 sequence (Q04609 whole entry): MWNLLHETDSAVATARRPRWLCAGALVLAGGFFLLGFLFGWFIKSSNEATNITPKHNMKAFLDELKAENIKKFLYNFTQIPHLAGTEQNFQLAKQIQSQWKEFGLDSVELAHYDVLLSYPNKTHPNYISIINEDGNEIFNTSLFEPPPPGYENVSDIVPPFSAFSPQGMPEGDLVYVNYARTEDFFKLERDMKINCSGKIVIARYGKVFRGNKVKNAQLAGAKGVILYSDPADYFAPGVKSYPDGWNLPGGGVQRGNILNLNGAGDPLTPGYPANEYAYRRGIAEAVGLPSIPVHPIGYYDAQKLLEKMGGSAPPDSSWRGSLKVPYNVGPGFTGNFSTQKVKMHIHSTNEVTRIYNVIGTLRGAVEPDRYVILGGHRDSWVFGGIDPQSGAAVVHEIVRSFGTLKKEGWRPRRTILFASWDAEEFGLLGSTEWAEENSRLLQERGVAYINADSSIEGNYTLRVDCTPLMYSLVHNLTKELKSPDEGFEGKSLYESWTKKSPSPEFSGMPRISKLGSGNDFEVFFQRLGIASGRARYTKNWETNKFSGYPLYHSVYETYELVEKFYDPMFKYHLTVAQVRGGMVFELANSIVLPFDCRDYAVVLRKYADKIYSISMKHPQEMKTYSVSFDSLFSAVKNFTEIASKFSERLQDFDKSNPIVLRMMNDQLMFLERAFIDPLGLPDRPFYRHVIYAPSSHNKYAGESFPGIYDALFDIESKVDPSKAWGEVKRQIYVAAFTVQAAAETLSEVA

Salivary gland uptake [1] [%IA/g]	Compound	Ki (PSMA) [nM]	Kidney uptake [2] [%IA/g]
–	O=C([O-])CN1CCN(CC(=O)[O-])CCN(CC(=O)NCC2CCC(C(=O)N[C@@H](Cc3ccc4ccccc4c3)C(=O)NCCCC[C@H](NC(=O)N[C@@H](CCC(=O)O)C(=O)O)C(=O)O)CC2)CCN(CC(=O)[O-])CC1.[Lu+3] (stereo partly drawn) [Lu-PSMA-617]	0.24 ± 0.06	–
4.99±0.88	O=C([O-])CN1CCN(CC(=O)[O-])CCN(CC(=O)NCC2CCC(C(=O)NC(Cc3c4ccccc4cc4ccccc34)C(=O)NCCCCC(NC(=O)NC(CCC(=O)O)C(=O)O)C(=O)O)CC2)CCN(CC(=O)[O-])CC1.[68Ga+3] (stereo not drawn) [[^68Ga]Ga-HTK03041]	–	170±26.4
